This is an account of results in US20050124607A1, “5-Substituted quinazolinone compounds useful as alpha 1A/B adrenergic receptor antagonists” (priority 2003, published 2005).

Counter-ions that a name gives are not always drawn.

One series addresses T1, alpha1D adrenoceptor (Homo sapiens, UniProt P25100).
T1 construct: expressed in transfected cells; host or cells: CHO-K1
T1 sequence (P25100 1-572): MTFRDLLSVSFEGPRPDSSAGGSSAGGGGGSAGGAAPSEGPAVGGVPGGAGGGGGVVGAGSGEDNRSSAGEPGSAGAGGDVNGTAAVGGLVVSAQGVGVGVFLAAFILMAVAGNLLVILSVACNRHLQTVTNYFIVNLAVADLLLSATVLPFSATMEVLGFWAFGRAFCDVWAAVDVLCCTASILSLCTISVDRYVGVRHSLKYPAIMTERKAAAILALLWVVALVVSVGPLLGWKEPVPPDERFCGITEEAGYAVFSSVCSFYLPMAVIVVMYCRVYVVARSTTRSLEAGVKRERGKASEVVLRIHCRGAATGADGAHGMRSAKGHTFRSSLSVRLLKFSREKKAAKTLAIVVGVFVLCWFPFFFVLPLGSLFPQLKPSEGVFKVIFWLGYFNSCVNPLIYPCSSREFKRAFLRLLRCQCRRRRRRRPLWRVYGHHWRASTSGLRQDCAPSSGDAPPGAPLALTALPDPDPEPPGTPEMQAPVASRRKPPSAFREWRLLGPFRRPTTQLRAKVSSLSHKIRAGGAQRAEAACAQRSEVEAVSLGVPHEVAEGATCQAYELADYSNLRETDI
Description: [3H]prazosin binding (alpha1-adrenoceptor) assay, alpha 1D. Particulars: transfected CHO-K1 cell membranes, read-out: pKi alpha 1D (converted). As to the method: (§1) Alpha1 A, alpha1B, and alpha1D adrenoceptor transfected CHO-K1 cells, prepared using the methods described by Chang et al., FEBS Lett. 1998, 422:279-283, were grown to confluence in T-162 tissue culture flasks in Ham's F-12 culture medium supplemented with 10% fetal bovine serum, geneticin (150 μg/mL) and streptomycin/penicillin (30 μg/mL/30 μg/mL) at 37° C. in 7% CO2. Cells were harvested by incubating with phosphate-buffered saline (PBS) containing 30 μM EDTA for 5-10 min at 37° C. Cells were pelleted by centrifuging at 500×g for 5 min, and the pelleted cells were homogenized (Polytron homogenizer) in 10 vols (w/v) of 50 mM Tris, 1 mM EDTA, (homogenisation buffer, pH 7.4 at 4° C.). The homogenate was centrifuged at 45,000×g for 20 min. The pellet was resuspended in the homogenizing buffer and rehomogenized. The resulting homogenate was centrifuged at 45,000×g for 20 min. The pellet was resuspended in 50 mM Tris buffer (pH 7.4 at 4° C.), aliquoted, frozen, and stored at −80° C. for further use.
(§2) The membranes were thawed at rt and diluted in assay buffer (50 mM Tris buffer at […]) at 37° C. and homogenized using the Polytron tissue disrupter. The membranes were incubated with the radioligand ([^3H]prazosin, NEN, 0.1-0.5 nM) and test compound at 37° C. for 30 min. The membranes were then filtered over polyethyleneimine-treated GF/B unifilter plates using a Packard Filtermate Harvester and washed with ice-cold 50 mM Tris-HCl, 1 mM EDTA buffer (3×3 sec. washes). Scintillation cocktail was added to the filter plates and bound radioligand determined by liquid scintillation spectrophotometry.
(§3) For each experiment, total binding (in the absence of any test or reference compounds) and non-specific binding (10 μM phentolamine) were determined. For each sample tested, the concentration producing 50% inhibition of binding (IC50) and Hill Slope (nH) was determined using iterative non-linear curve fitting techniques with Kaleidagraph (Synergy Software) or other appropriate software. If the radioligand KD was known, the inhibition dissociation constant (KI) of each ligand was determined according to the method of Cheng and Prusoff (Cheng, Y-C. and Prusoff, W. H., Biochem.Pharmacol., 1973, 22, 3099-3108).
Regarding `COc1cc2[nH]c(N3CCN(c4ncc[nH]4)CC3)nc(=O)c2c(OC)c1OC` [2-[4-(1H-Imidazol-2-yl)-piperazin-1-yl]-5,6,7-tri-methoxy-1H-quinazolin-4-one], the Ki is 457 nM.

In a further series the target is T2, alpha1B adrenoceptor (Homo sapiens, UniProt P35368).
T2 construct: expressed in transfected cells; host or cells: CHO-K1
T2 sequence (P35368 1-520): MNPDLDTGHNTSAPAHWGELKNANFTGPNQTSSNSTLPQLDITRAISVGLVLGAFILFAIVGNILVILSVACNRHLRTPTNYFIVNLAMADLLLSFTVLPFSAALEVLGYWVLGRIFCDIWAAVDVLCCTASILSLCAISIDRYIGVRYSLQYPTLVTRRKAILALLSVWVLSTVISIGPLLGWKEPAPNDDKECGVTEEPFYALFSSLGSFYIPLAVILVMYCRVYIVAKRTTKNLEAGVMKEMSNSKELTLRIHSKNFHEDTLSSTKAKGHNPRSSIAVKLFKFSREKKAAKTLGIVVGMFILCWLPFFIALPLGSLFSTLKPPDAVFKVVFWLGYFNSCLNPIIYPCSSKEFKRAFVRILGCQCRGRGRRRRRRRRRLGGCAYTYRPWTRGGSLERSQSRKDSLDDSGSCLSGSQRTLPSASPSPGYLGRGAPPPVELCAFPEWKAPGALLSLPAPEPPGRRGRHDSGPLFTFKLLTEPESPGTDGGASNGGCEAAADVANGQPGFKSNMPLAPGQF
Description: [3H]prazosin binding (alpha1-adrenoceptor) assay, alpha 1B. Particulars: transfected CHO-K1 cell membranes, read-out: pKi alpha 1B (converted). As to the method:
as §1, §2, §3
Consider `COc1cc2[nH]c(N3CCN(c4ncc[nH]4)CC3)nc(=O)c2c(OC)c1OC` [2-[4-(1H-Imidazol-2-yl)-piperazin-1-yl]-5,6,7-tri-methoxy-1H-quinazolin-4-one], for which the Ki was 2.51 nM.

Tested on in a further series: not given
Test: not given
Details: not given
With `COc1cc2[nH]c(N3CCc4c(ncnc4N4CCOCC4)C3)nc(=O)c2c(OC)c1OC` (as salt: HCl) [Example 135, 5,6,7-Trimethoxy-2-(4-morpho-lin-4-yl-5,8-di-hydro-6H-pyrido[3,4-d]py-rimidin-7-yl)-1H-quina-zolin-4-one], the melting point (in general, the temperature, or range, at which the solid turns liquid) lay in the range of 190 to 192 °C.

In the case of `CCOc1c(OC)c(OC)cc2[nH]c(N3CCc4cc(OC)c(OC)cc4C3)nc(=O)c12` (as salt: HCl) [Example 109, 2-(6,7-Dimethoxy-3,4-di-hydro-1H-isoquinolin-2-yl)-5-eth-oxy-6,7-di-methoxy-1H-quinazolin-4-one], the melting point lay in the range of 218.5 to 221 °C.

For `COc1cc2[nH]c(N3CCc4ccc(/N=C(\C)N(C)C)cc4C3)nc(=O)c2c(C)c1OC` [Example 132, N′-[2-(6,7-Dimethoxy-5-meth-yl-4-oxo-1,4-di-hydro-quinazolin-2-yl)-1,2,3,4-tetra-hydro-isoquinolin-7-yl]-N,N-di-methyl-acetamidine], the melting point was in the range of 176 to 177.1 °C.

In turn, `COc1cc2[nH]c(N3CCCC3c3cccc(NCCNC(C)=O)c3)nc(=O)c2c(OC)c1OC` (centres unmarked) [Example 139, N-(2-{3-[1-(5,6,7-Tri-methoxy-4-oxo-1,4-di-hydro-quinazolin-2-yl)-pyr-rolidin-2-yl]-phenyl-amino}-ethyl)-acetamide] showed a melting point of 188.6 to 191 °C.

For the compound `COc1cc2[nH]c(N3Cc4ccc(Cl)cc4C3)nc(=O)c2c(OC)c1OC.Cl`, the melting point lay within 289 to 291 °C.

Turning to `COc1cc2[nH]c(N3CCC(OCc4cccc(/N=C(\C)N(C)C)c4)CC3)nc(=O)c2c(OC)c1OC` [Example 81, N,N-Dimethyl-N′-{3-[1-(5,6,7-tri-methoxy-4-oxo-1,4-di-hydro-quinazolin-2-yl)-pipe-ridin-4-yloxy-methyl]-phenyl}-acetamidine], the melting point fell in the range of 56 to 64.9 °C.

`COc1cc2c(cc1OC)CN(c1nc(=O)c3c(OCC4CC4)c(OC)c(OC)cc3[nH]1)CC2` [Example 108, 5-Cyclopropylmethoxy-2-(6,7-di-methoxy-3,4-di-hydro-1H-isoquinolin-2-yl)-6,7-di-methoxy-1H-quinazolin-4-one]: the melting point lay in the range of 214 to 215.8 °C.

Turning to `COc1cc2c(cc1OC)CN(c1nc(=O)c3c(OCCOCc4ccccc4)c(OC)c(OC)cc3[nH]1)CC2` [Example 112, 5-(2-Benzyloxy-ethoxy)-2-(6,7-di-methoxy-3,4-di-hydro-1H-isoquinolin-2-yl)-6,7-di-methoxy-1H-quinazolin-4-one], the melting point fell in the range of 197 to 201.9 °C.

`COc1cc2[nH]c(N3CCC(Cc4ccccc4)CC3)nc(=O)c2c(OC)c1OC` [Example 63, 2-(4-Benzyl-piperidin-1-yl)-5,6,7-tri-methoxy-1H-quina-zolin-4-one] yielded a melting point of 212 to 215 °C.

In the case of `COC[C@@H]1CCCN1CCC1CCN(c2nc(=O)c3c(OC)c(OC)c(OC)cc3[nH]2)CC1` [Example 69, 5,6,7-Trimeth-oxy-2-{4-[2-((S)-2-meth-oxymethyl-pyr-rolidin-1-yl)-ethyl]-pipe-ridin-1-yl}-1H-quina-zolin-4-one], the melting point was 78.8 to 91.6 °C.

Compound `COc1cc2[nH]c(N3CCC(CCN4CCN=C4C)CC3)nc(=O)c2c(C)c1OC` yielded a melting point of 266.1 to 269.5 °C.

Consider `COc1cc2[nH]c(N3CCN(c4cccc(C)n4)CC3)nc(=O)c2c(OC)c1OC` [Example 24, 5,6,7-Trimethoxy-2-[4-(6-meth-yl-pyridin-2-yl)-pipe-razin-1-yl]-1H-quina-zolin-4-one], for which the melting point is 231.1 to 232.2 °C.

The compound `COc1cc2nc(N3CCN(C(=O)CCC(C)C)CC3)[nH]c(=O)c2c(OC)c1OC` (as salt: salt) [Example A-1, 5,6,7-Trimethoxy-2-[4-(4-methyl-pentanoyl)-piperazin-1-yl]-1H-quinazolin-4-one] yielded a melting point of 198 to 201 °C.

Regarding `CCCC(=N)Nc1cccc2c1CCN(c1nc(=O)c3c(C)c(OC)c(OC)cc3[nH]1)C2` [Example 125, N-[2-(6,7-Dimethoxy-5-meth-yl-4-oxo-1,4-di-hydro-quinazolin-2-yl)-1,2,3,4-tetra-hydro-isoquinolin-5-yl]-butyramidine], the melting point is 254.3 to 257.1 °C.

Regarding `COc1cc2[nH]c(N3CCN(C4=NCCN4C)CC3)nc(=O)c2c(OC)c1OC` (as salt: HCl), the melting point was in the range of 181.6 to 188.8 °C.

For `COc1cc2[nH]c(N3CCN(c4nccn4C)CC3)nc(=O)c2c(C)c1OC`, the melting point was 263 to 264 °C.

The compound `CNCc1cccc2c1CCN(c1nc(=O)c3c(C)c(OC)c(OC)cc3[nH]1)C2` [Example 6, 6,7-Dimethoxy-5-meth-yl-2-(5-methyl-aminomethyl-3,4-di-hydro-1H-isoquinolin-2-yl)-1H-quin-azolin-4-one] yielded a melting point of 241.9 to 245.5 °C.

`COc1cc2[nH]c(N3CCC(OCc4ccccc4S(=O)(=O)N(C)C)CC3)nc(=O)c2c(C)c1OC` [Example 61, 2-[1-(6,7-Dimethoxy-5-meth-yl-4-oxo-1,4-di-hydro-quinazolin-2-yl)-pipe-ridin-4-yl-oxymethyl]-N,N-dimethyl-benzene-sulfonamide] showed a melting point of 217.9 to 219.8 °C.

The compound `COc1cc2[nH]c(N3CCc4c(cccc4NC(=N)C4CCC4)C3)nc(=O)c2c(C)c1OC` [Example 123, N-[2-(6,7-Dimethoxy-5-meth-yl-4-oxo-1,4-di-hydro-quinazolin-2-yl)-1,2,3,4-tetra-hydro-isoquinolin-5-yl]-cyclo-butanecarboxamidine] returned a melting point of 252.1 to 256.1 °C.

Regarding `COc1cc2[nH]c(N3CCC(CCn4ccnc4N)CC3)nc(=O)c2c(C)c1OC`, the melting point fell in the range of 130.9 to 133.3 °C.

The target in a further series is T3, alpha1A adrenoceptor (Homo sapiens, UniProt P35348).
T3 construct: expressed in transfected cells; host or cells: CHO-K1
T3 sequence (P35348 1-466): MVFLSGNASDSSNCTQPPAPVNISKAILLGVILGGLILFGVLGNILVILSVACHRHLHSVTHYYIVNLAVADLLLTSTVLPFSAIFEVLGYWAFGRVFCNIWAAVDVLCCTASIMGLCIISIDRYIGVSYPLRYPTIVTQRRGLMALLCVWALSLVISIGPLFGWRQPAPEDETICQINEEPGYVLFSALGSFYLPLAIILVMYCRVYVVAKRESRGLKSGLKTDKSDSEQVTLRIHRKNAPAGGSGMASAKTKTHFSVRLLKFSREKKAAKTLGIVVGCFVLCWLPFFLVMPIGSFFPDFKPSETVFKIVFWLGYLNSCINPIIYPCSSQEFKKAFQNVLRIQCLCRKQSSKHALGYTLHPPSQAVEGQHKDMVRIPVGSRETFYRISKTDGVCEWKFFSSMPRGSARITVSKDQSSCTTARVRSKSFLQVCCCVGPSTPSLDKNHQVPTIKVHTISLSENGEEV
Description: [3H]prazosin binding (alpha1-adrenoceptor) assay, alpha 1A. Particulars: transfected CHO-K1 cell membranes, read-out: pKi alpha 1A (converted). As to the method:
as §1, §2, §3
On to `COc1cc2[nH]c(N3CCN(c4ncc[nH]4)CC3)nc(=O)c2c(OC)c1OC` [2-[4-(1H-Imidazol-2-yl)-piperazin-1-yl]-5,6,7-tri-methoxy-1H-quinazolin-4-one], for which the Ki was 1.12 nM.
